Assay results reported in patent publication US4952689A, “3-(substituted propylidene)-2-azetidinone derivates for blood platelet aggregation” (Taisho Pharmaceutical Co., Ltd., priority 1988, dated 1990).

system: acute thrombocytopenia; experiment: Inhibitory effect on acute thrombocytopenia in mice (ADP-induced); format: in vivo, male ICR mice; conditions: 300 mg/kg by gavage 2 hours prior to ADP (1 mg/kg, tail vein); platelet count at 30 seconds after ADP
Protocol: Experiment [Inhibitory effect on acute thrombocytopenia in mice]
Ten male ICR mice weighing 20-30 g were used for each group. Under pentobarbital anaesthesia, adenosine diphosphate (ADP) dissolved in physiological saline in a dose of 1 mg/kg was injected into the tail vein and 20 μl of blood was collected from the femoral artery at 30 seconds after injection of ADP. Immediately after blood sampling, platelet counts were measured with an automatic blood cell counter (Sysmex CC-180A). Platelet count of normal group without injection of ADP was measured as well.
Test drugs [Compounds 2 and 3 (the compounds of the present invention) and Compound 1 (the comparative drug) in Table 1] were suspended in 5% gum arabic solution and administered by gavage in a dose of 300 mg/kg 2 hours prior to injection of ADP. As control group, 5% gum arabic solution without test drugs was administered.
Inhibition ratio of acute thrombocytopenia was calculated by the following formula. [formula]
Note: A: Platelet count of the group treated with both test drug and ADP
B: Platelet count of control group with both 5% gum arabic solution and ADP
C: Platelet count of normal group without injection of ADP

Structure (SMILES) | Inhibition Ratio [%]
COc1ccc(N2C(=O)/C(=C/C(C)=NOCCCN3CCN(c4ccccn4)CC3)C2c2ccccc2)cc1 (stereo not drawn) [Compound 3, (E)-1-(4-Methoxyphenyl)-3-[2-[3-{1-[4-(2-pyridyl)piperadinyl]}propoxyimino]-propylidene]-4-phenyl-2-azetidinone] | 57.61
COc1ccc(N2C(=O)/C(=C/C(C)=NOCC(=O)O)C2c2ccccc2)cc1 (stereo not drawn) [Compound 1, (E)-1-(4-Methoxyphenyl)-3-(2-carboxymethoxyiminopropylidene)-4-phenyl-2-azetidinone, reference compound] | 12.00
COc1ccc(N2C(=O)/C(=C/C(C)=NOCCCN3CCOCC3)C2c2ccccc2)cc1 (stereo not drawn) [Compound 2, (E)-1-(4-Methoxyphenyl)-3-{2-[3-(4-morpholinyl)propoxyimino]propylidene}-4-phenyl-2azetidinone] | 54.66
